In patent US20240216387A1, “COMPOSITION FOR PREVENTING OR TREATING MUSCULAR DISEASE, COMPRISING OXICAM-BASED COMPOUND” (ANIMUSCURE INC., priority 2021, published 2024):

Legend:
C2Cl2 cells = test: Myoblast differentiation by meloxicam concentration (MHC immunofluorescence and Western blot); assay type: cell-based, mice
Method: The C2Cl2 cells were cultured in a general cell culture medium and a differentiation medium, respectively. DMEM supplemented with 10% fetal bovine serum was used as a normal cell culture medium (i.e., a growth medium (GM)), and DMEM containing 2% horse serum was used as a differentiation medium (DM). […] After differentiation, the cells were observed under a microscope, and the cells were disrupted and subjected to Western blot analysis using myogenin and MHC antibodies, which are differentiation markers. The C2Cl2 cells were washed with 1×PBS, fixed with 4% paraformaldehyde at room temperature, and then allowed to react at room temperature after adding a permeabilization buffer. The reaction was performed with PBST (blocking buffer) containing 5% goat serum and PBS containing 0.05% Tween 20 to inhibit non-specific antibody binding. After adding a primary antibody against myosin heavy chain (MHC), the resulting mixture was allowed to react at room temperature. A secondary antibody diluted 1:5000 in a blocking buffer was added and allowed to react at room temperature, and after applying a mounting solution (40% glycerol in DW) and fixing, images were taken under a fluorescence microscope to analyze the results.

human muscle stem cells = test: Human muscle stem cell differentiation (MHC immunostaining, myotube diameter); assay type: cell-based; conditions: muscle stem cells from subject, meloxicam 1 μM, 4 days
Method: In addition, human muscle stem […] human skeletal muscle cells (Standard Donors), Cat NO: SK-1111) isolated from the rectus abdominis […] were purchased from MyoSite and used. Human muscle stem […] human skeletal muscle cells (Standard Donors), Cat NO: SK-1111) isolated from the rectus abdominis […] were purchased from MyoSite and used. Human muscle stem cells were seeded in a cell culture medium and cultured for 24 hours. […] The degree of differentiation into muscle fibers was measured through MHC immunostaining, which is a muscle fiber marker. Differentiation was analyzed by muscle fiber diameter.

24-month-old mice = test: Muscle mass, muscle type and motor performance in aging mice upon long-term administration; assay type: in vivo
relatively young mice = test: Grip strength and motor performance in relatively young mice (FIG. 15); assay type: in vivo
Method: On day 21 after inducing CTX-injury, a grip strength test for measuring the muscle strength of the meloxicam-administered group and the control group and an experiment for confirming motor performance were conducted. The grip strength test was performed by using a mouse grip strength tester manufactured by BIOSEB.

4-month-old normal mice = test: Body weight, intake, grip strength, treadmill test and muscle mass in 4-month-old normal mice upon long-term administration; assay type: in vivo; conditions: meloxicam for 2 months
Method: In the treadmill test, measurement was performed by using a treadmill device for mice manufactured by Columbus Instruments. Measurements started at a 10% slope and 8 m/min, which was increased 1 m/min every 2 minutes, and continued until the mouse became tired.

With `Cc1cnc(NC(=O)C2=C(O)c3ccccc3S(=O)(=O)N2C)s1` [meloxicam] the “MHC expression level (Western blot)” value (C2Cl2 cells; by meloxicam concentration (1-10,000 nM), FIG. 3) was “increased”, the “MHC observed in myoblasts (fluorescence microscope)” value (C2Cl2 cells; high concentration of meloxicam (1-10,000 nM tested), differentiation for 3 days, FIG. 2) was “clearly observed” and the myotube diameter (human muscle stem cells; FIG. 4) was “increased”. For the same compound, the MHC expression (human muscle stem cells; FIG. 5) was “increased”, the myotube diameter (human muscle stem cells; FIG. 5) was “increased” and the “effect of increasing motor performance” value (24-month-old mice; 7-month-old mice) was “confirmed”. The “muscle mass in the hindlimb muscles and EDL muscle” value (24-month-old mice; 24-month-old mice, meloxicam for 4 months, FIG. 12) was “increased”, the “motor performance increase (rotarod apparatus) compared to the control group” value (24-month-old mice; aged mice, FIG. 14) was “more than 50%” and the motor performance increase (relatively young mice) was “up to 72.3%”. The “muscle strength increase (grip strength test) compared to the control group” value (relatively young mice; day 21 after inducing CTX-injury as printed) was “about 21.9%”, the “body weight change compared with the non-administration group” value (4-month-old normal mice; FIG. 16A) was “no significant change” and the change in intake (4-month-old normal mice; FIG. 16B) was “no change”. The “muscle strength (grip strength test)” value (4-month-old normal mice; FIG. 17A) was “improved” and the “exercise duration (treadmill test)” value (4-month-old normal mice; compared to the non-administration group, FIG. 17A) was “improved”.
